Experimental data taken from patent publication US20030068615A1, “Polypeptides that bind HIV gp120 and related nucleic acids, antibodies, compositions, and methods of use” (priority 1999, published 2003).
“And” between values parts separate entries of the source, which are not always exact repeats. Identical values can stand only once. Like-named read-outs stand apart in the source and are kept apart here.

Tests used:
[1] = tested on: HIV-1 virus strains (e.g. YU2); conditions: cited from earlier work; for percentage compared to wild-type CCR5, ADA / percentage compared to wild-type CCR5, DH123 / percentage compared to wild-type CCR5, JF-RL / percentage compared to wild-type CCR5, 89.6 / percentage compared to wild-type CCR5, YU2: CCR5 alanine mutant, work of others; for percentage compared to wild-type CCR5, ADA: HIV-1 strain ADA; for percentage compared to wild-type CCR5, DH123: HIV-1 strain DH123; for percentage compared to wild-type CCR5, JF-RL: HIV-1 strain JF-RL; for percentage compared to wild-type CCR5, 89.6: HIV-1 strain 89.6; for percentage compared to wild-type CCR5, YU2: HIV-1 strain YU2
[2] = molecular target: HIV-1LAI envelope gp120 (Human immunodeficiency virus type 1 group M subtype B, UniProt P03377); format: binding; conditions: for percentage of binding of mutant polypeptide compared to wild-type polypeptide, gp120: CCR5 alanine mutant peptide; for percentage of binding of mutant polypeptide compared to wild-type polypeptide, gp120 / Counts per 20′ Average-background: radiolabeled HIV-1LAI gp120; for number of radioactive decays (counts) counted: human CD4 21-mer scan, empty control 2075; for Counts per 20′ Average-background: CCR5 18-mer scan; for radioactive counts recorded in twenty minutes: CXCR4 18-mer scan
[3] = Panel C, 15-mers and 18-mers of CD4, empty control 556
[4] = Panel A, 21-mers of CD4, empty control 515 and 617
[5] = background subtracted, empty control 0
[6] = Panel B, 15-mers and 18-mers of CD4, empty control 575
[7] = Panel E, 9-mers and 12-mers of CD4, empty control 571

## Y3A: human CCR5 chemokine receptor with tyrosine 3 substituted by alanine, studied by others (cited 79% value)
[1]
  percentage compared to wild-type CCR5, ADA: 79%
  percentage compared to wild-type CCR5, DH123: 42%
  percentage compared to wild-type CCR5, JF-RL: 82%
[1]; mutated CCR5, data extracted from the work of others
  affinity relative to a non-mutated CCR5 chemokine receptor: 79%
[2]
  percentage of binding of mutant polypeptide compared to wild-type polypeptide, gp120: 51.4%
[2]; CCR5 mutant polypeptide
  ability to bind HIV-1LAI gp120 envelope protein in comparison to an equivalent wild-type peptide: 51.4%

## MDYQVSSPIYDINAYTSE: CCR5 (1-18) variant Y14A
[1]
  percentage compared to wild-type CCR5, 89.6: 6%
  percentage compared to wild-type CCR5, ADA: 47%
  percentage compared to wild-type CCR5, DH123: 0%
  percentage compared to wild-type CCR5, JF-RL: 25%
  percentage compared to wild-type CCR5, YU2: 12%

## MDYQVSSPIYDINYYTSA: CCR5 (1-18) variant E18A
[1]
  percentage compared to wild-type CCR5, 89.6: 3%
  percentage compared to wild-type CCR5, ADA: 12%
  percentage compared to wild-type CCR5, DH123: 10%
  percentage compared to wild-type CCR5, JF-RL: 12%
  percentage compared to wild-type CCR5, YU2: 45%

## MDYQVSSPIYDINYATSE: CCR5 (1-18) variant Y15A
[1]
  percentage compared to wild-type CCR5, 89.6: 1%
  percentage compared to wild-type CCR5, ADA: 3%
  percentage compared to wild-type CCR5, DH123: 0%
  percentage compared to wild-type CCR5, JF-RL: 3%
  percentage compared to wild-type CCR5, YU2: 30%

## MDYAVSSPIYDINYYTSE: CCR5 (1-18) variant Q4A
[1]
  percentage compared to wild-type CCR5, 89.6: 67%
  percentage compared to wild-type CCR5, ADA: 132%
  percentage compared to wild-type CCR5, DH123: 105%
  percentage compared to wild-type CCR5, JF-RL: 111%
  percentage compared to wild-type CCR5, YU2: 85%

## MDYQVSSPIYAINYYTSE: CCR5 (1-18) variant D11A
[1]
  percentage compared to wild-type CCR5, 89.6: 6%
  percentage compared to wild-type CCR5, ADA: 27%
  percentage compared to wild-type CCR5, DH123: 3%
  percentage compared to wild-type CCR5, JF-RL: 22%
  percentage compared to wild-type CCR5, YU2: 2%

## MDYQVSSPIADINYYTSE: CCR5 (1-18) variant Y10A
[1]
  percentage compared to wild-type CCR5, 89.6: 10%
  percentage compared to wild-type CCR5, ADA: 50%
  percentage compared to wild-type CCR5, DH123: 3%
  percentage compared to wild-type CCR5, JF-RL: 26%
  percentage compared to wild-type CCR5, YU2: 2%

## QLQKNLTCEVWGPTSPKLMLS [human CD4 321-341]
[2]
  number of radioactive decays (counts) counted: 1856 counts

## WTCTVLQNQKKVEFKIDI
[2]; [3]
  COUNTS of radiolabeled gp120 retained: 588 counts

## EEVQLLVFGLTTNSD
[2]; Panel F, sequential alanine replacements of CD4 polypeptides, duplicate series, empty control 569
  COUNTS of radiolabeled gp120 retained: 20021 counts and 20100 counts

## LLVFGLTAN
[2]; Panel D, 9-mers and 12-mers of CD4, empty control […]
  COUNTS of radiolabeled gp120 retained: 576 counts

## QALPQYAGSGNLTLALEAKTG [human CD4 286-306]
[2]
  number of radioactive decays (counts) counted: 2364 counts

## KASSIVYKKEGEQVEFSF
[2]; [3]
  COUNTS of radiolabeled gp120 retained: 536 counts

## DIVVLAFQKASSIVYKKEGEQ
[2]; [4]
  COUNTS of radiolabeled gp120 retained: 788 counts

## FIFGFVGNMLVILILINC [CCR5 segment 41-58]
[2]; background subtracted
  Counts per 20′ Average-background: 343 counts per 20′

## TVILILAFFACWLPYYIG
[2]; [5]
  radioactive counts recorded in twenty minutes: 323 counts
[2]; empty control 412
  radioactive counts recorded in twenty minutes: 735 counts

## QEFFGLNNCSSSNRLDQA [CCR5 segment 261-]
[2]; background subtracted
  Counts per 20′ Average-background: 63 counts per 20′

## KIDIVVLAFQKASSIVYKKEG
[2]; [4]
  COUNTS of radiolabeled gp120 retained: 1394 counts
[2]
  number of radioactive decays (counts) counted: 3681 counts

## GEQVEFSFPLAFTAE
[2]; Panel G, alanine replacements and serial truncations (Z) of CD4 polypeptides, empty control 580
  COUNTS of radiolabeled gp120 retained: 18797 counts and 16765 counts

## GCEFENTVHKWISITEAL [CXCR4 segment 273-290]
[2]; [5]
  radioactive counts recorded in twenty minutes: 264 counts
[2]; empty control 412
  radioactive counts recorded in twenty minutes: 676 counts

## VEDQKEEVQLLVFGLTAN
[2]; [6]
  COUNTS of radiolabeled gp120 retained: 3913 counts

## QKEEVQLLVFGLTANSDT
[2]; [6]
  COUNTS of radiolabeled gp120 retained: 3671 counts

## GLTANSDTHLLQGQSLTL
[2]; [6]
  COUNTS of radiolabeled gp120 retained: 572 counts

## EFSFPLAFTVEK
[2]; [7]
  COUNTS of radiolabeled gp120 retained: 585 counts

## MDYQVSSPIYDINAYTSE [CCR5 (1-18) variant Y14A]
[2]; CCR5 (1-18) alanine variants, mean of two syntheses and binding experiments ± average deviation, wild-type = 100%
  Relative % of Control: 15 ± 0.3%
[2]
  percentage of binding of mutant polypeptide compared to wild-type polypeptide, gp120: 14.6%

## YSIIFLTGIVGNGLVILV [CXCR4 segment 45-62]
[2]; [5]
  radioactive counts recorded in twenty minutes: 123 counts
[2]; empty control 412
  radioactive counts recorded in twenty minutes: 535 counts

## KVEFKIDIV
[2]; [7]
  COUNTS of radiolabeled gp120 retained: 555 counts

## KEGEQVEFSFPLAFTVEK
[2]; [3]
  COUNTS of radiolabeled gp120 retained: 3117 counts
